Assay results taken from patent publication US11499978B2, “Method for measuring quality of therapeutic cell through real-time glutathione measurement” (CELL2IN, INC., priority 2017, dated 2022).

Key:
[1] = test system: hUC-MSCs; assay: Oxidative stress resistance capacity (ORC) analysis in hUC-MSCs with RSL3; type: cell-based, human; conditions: hUC-MSCs subcultured three times with AA2G 250 μg/mL; compared with naive cell group (NC)
Procedure: GRC refers to a value obtained by real-time monitoring of FR after living cells are treated with an oxidizing agent, as calculated by dividing a value obtained by subtracting AUC of a group treated with 0.1-100 mM N-ethylmaleimide (NEM) from FR AUC of an oxidizing agent (diamide, H2O2, etc.)-treated group by a value obtained by subtracting the AUC of NEM-treated group from AUC of the untreated control, and multiplying the resulting value by 100. The FR of the NEM-treated group is a value for increasing the sensitivity of a GRC value by treating it as the blank value of the FR of the cells of interest. […] To remove the MitoFreSH-Tracer from the medium before measurement, the medium was exchanged with fresh 10 mM HEPES-containing HBSS(Hanks' Balanced Salt Solution), and a fluorescence image was obtained using a confocal imaging system, Operetta. By comparing GSH levels quantified from control cells not treated with RSL3 or control cells before treated with RSL3, the distribution of GSH expression-changed cells was calculated. Based on the point where the distribution histogram is divided into two peaks, the cells were divided into GSH^High cells (right peak) and GSH^Low cells (left peak), and then a ratio of corresponding cells was expressed as a percentage (%). […]

[2] = test system: hUC-MSCs; assay: SDF1α- and PDGF-AA-induced migration capacity of hUC-MSCs; type: cell-based, human; conditions: 125 or 250 μg/mL AA2G for three days, n=3
Procedure: The inventors observed an effect of the material on stem cells by treating each stem cells with a material for enhancing a glutathione evaluation parameter. When hUC-MSCs were subcultured in a L-AA2G-containing medium, CFU-F, migration capacity, and an anti-inflammatory effect were observed. A CFU-F assay (n=3) was performed by treating hUC-MSCs with 125 or 250 μg/mL of AA2G for three days. As shown in FIGS. 16A and 16B, it was confirmed that, when AA2G was treated, CFU-F increased. In addition, as hUC-MSCs were treated with 125 or 250 μg/mL of AA2G for three days, PDGF-AA-induced migration capacity (n=3) was analyzed. As shown in FIGS. 17A and 17B, it was confirmed that the migration capacity was increased by AA2G treatment. In addition, the reduction in T cell proliferation, the reduction in T cell differentiation, and the promotion of Treg cell differentiation were observed by treating hUC-MSCs with 125 or 250 μg/mL of AA2G for three days. […] Meanwhile, hUC-MSCs were cultured with a glutathione precursor such as γ-glutamyl cysteine (GGC, 0.1, 0.25, and 0.5 mM). […] In addition, SDF1α and PDGF-AA-induced migration capacities (n=3) were analyzed for hUC-MSCs without treatment with GGC, and SDF1α and PDGF-AA-induced migration abilities (n=3) were analyzed by treating hUC-MSCs with the increasing concentrations of GGC. […]

`O=C1O[C@H]([C@@H](O)CO)C(O)=C1O[C@H]1O[C@H](CO)[C@@H](O)[C@H](O)[C@H]1O` [AA2G, ascorbic acid 2-glucoside] was tested. Which “FreSH-Tracer-based ORC (GSH^High cells)” value [1] did it give?
Its value is “higher”.

What about the PDGF-AA-induced migration capacity [2] of the same compound?
Its PDGF-AA-induced migration capacity is “increased”.
